Where two headings read alike, the source gives them in different places.
Assays:
[1] = molecular target: T1, hOAT (Homo sapiens, UniProt P04181); assay: Time-dependent dialysis (reactivation) of inhibited hOAT; format: biochemical; settings: hOAT partially or fully inhibited (0.6-2.0 equivalents of 14); up to 91 h of dialysis
T1 construct: made in house
T1 sequence (P04181 with tags, fused parts or gaps): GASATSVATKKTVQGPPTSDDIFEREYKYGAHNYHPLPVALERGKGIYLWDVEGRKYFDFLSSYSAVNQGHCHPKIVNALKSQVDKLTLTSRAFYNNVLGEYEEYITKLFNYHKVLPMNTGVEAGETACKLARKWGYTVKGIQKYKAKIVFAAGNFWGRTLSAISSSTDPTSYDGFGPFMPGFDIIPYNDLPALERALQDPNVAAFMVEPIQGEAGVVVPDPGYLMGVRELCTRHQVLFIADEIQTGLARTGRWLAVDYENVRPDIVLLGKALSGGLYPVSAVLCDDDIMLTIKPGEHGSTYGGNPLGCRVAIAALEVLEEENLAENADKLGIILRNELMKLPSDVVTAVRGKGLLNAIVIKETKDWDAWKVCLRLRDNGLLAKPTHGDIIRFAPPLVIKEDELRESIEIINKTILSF
Description: Previously, five-membered ring analogs 5 and 9 were identified as partially irreversible inhibitors of GABA-AT, with the formation of the tight-binding adducts.^29-30 Thus, time-dependent reactivation experiments of hOAT for cyclohexene analog 14 were carried out to determine if similar reversible components were also involved during the inactivation. After hOAT activity was partially or fully abolished by 0.6-2.0 equivalents of 14, aliquots at different time intervals were collected and assayed for the return of enzyme activity.
The dialysis experiment was conducted using previous protocols.^6, 8-9

[2] = molecular target: T1, hOAT; settings: cited from earlier work
[3] = in vivo PK profiles; settings: for Cmax: read-out: C0/Cmax; for Kp at 0.25 h: read-out: B/P ratio @0.25 h
[4] = molecular target: T1, hOAT; assay: Coupled enzyme assay, time-dependent inactivation of hOAT; format: biochemical; settings: for Ki / kinact / kinact/KI: hOAT
Description: (§1) hOAT and PYCR1 were expressed, grown, and purified according to literature procedures.^3-4 GABA-AT was isolated from pig brains and purified according to a literature procedure.^5 Coupled enzyme assays for GABA-AT, hOAT, Ala-AT, and Asp-AT were carried out according to previous procedures.^6-7

[5] = molecular target: T2, GABA-AT (Sus scrofa, UniProt P80147); assay: Coupled enzyme assay, time-dependent inactivation of GABA-AT; format: biochemical, pig
T2 construct: GABA-AT was isolated from pig brains and purified according to a literature procedure; from tissue; host or cells: pig brain
Description: as §1

[6] = molecular target: T1, hOAT; assay: Fluoride ion release on inactivation of hOAT; format: biochemical; settings: for F^− Release: enzyme 1.34 μM monomer; for Fluoride ions released per active site: excess of inactivator
Description: Different equivalents of fluoride ions can be released in PLP and PMP turnover pathways. If PMP is formed in the turnover mechanism, it cannot be converted back to PLP in the absence of α-KG, which results in at most two equivalents of fluoride ion released (pathway a); more equivalents of fluoride ion would be released in the presence of α-KG if PMP is formed after the fluoride ion release step (pathway a1). If PLP is regenerated during the turnover mechanism, at least two equivalents of fluoride ions will be released in the absence of α-KG (pathway b), which should be close to the equivalents in the presence of α-KG. Based on the partition ratio and the confirmed inactivation mechanism for 14, the theoretical equivalents of fluoride ions, which are released per enzyme active site in different turnover pathways, can be calculated in the presence/absence of α-KG (Table 3). The concentration of released fluoride ions can be monitored by a fluoride ion-selective electrode. When OAT was inactivated with an excess of 14, 2.95 equivalents of fluoride ions were released in the presence of α-KG and 2.66 equivalents of fluoride ions were released in the absence of α-KG (Table 3).
The fluoride ion release assay was conducted using previous protocols.^2 The final concentration of hOAT in the sample was determined to be 61.7±4.1 ug/mL (monomer, 1.34±0.12 μM) via BSA assay and calculation of dilution. A calibration curve of voltage (V, mV) was generated from varying concentrations of NaF (F, μM) to get the equation: F^−=10^((V−181.4)/−54.21). For accurate detection of fluoride ion concentration, 2.0 μM of fluoride ion was added to each control and sample. The number of fluoride ions released per active site was calculated by the ratio of the fluoride ion release concentration and hOAT concentration.

[7] = system: aspartate aminotransferase (Asp-AT); assay: Coupled enzyme assay, inhibition of Asp-AT; format: biochemical; settings: at high concentrations, up to 20 mM
Description: as §1

[8] = system: alanine aminotransferase (Ala-AT); assay: Coupled enzyme assay, inhibition of Ala-AT; format: biochemical; settings: at high concentrations, up to 20 mM
Description: as §1

[9] = molecular target: T1, hOAT; assay: Partition ratio by titrating hOAT with inactivator; format: biochemical; settings: turnover number minus one
Description: Usually, the partition ratio is used to determine the ratio of degradation and inactivation, calculated by titrating the enzyme with varying equivalents of inactivator. Ideally, a linear relationship (between enzyme activity remaining and equivalents of compounds) can be extrapolated to yield the exact equivalents (the intercept with the x-axis, turnover number) required to inactivate the enzyme completely. Since this obtained number includes the one molecule of inactivator required to inactivate one enzyme monomer, the partition ratio is the turnover number minus one. Therefore, the partition ratios of 5 and 14 were determined by titrating hOAT with varying equivalents of inactivators (FIG. 21). From this, we determined the partition ratio of 5 to be 4.9 and the partition ratio of 14 to be 0.6. The enlarged ring not only enhances the potency and selectivity against hOAT but also improves the efficiency of the inactivation.
The partition ratio was calculated using previous protocols.^6, 8-9

[10] = values marked b from the slope of kobs vs [I], read-out: kinact/KI (converted)

T2 sequence (P80147 29-500): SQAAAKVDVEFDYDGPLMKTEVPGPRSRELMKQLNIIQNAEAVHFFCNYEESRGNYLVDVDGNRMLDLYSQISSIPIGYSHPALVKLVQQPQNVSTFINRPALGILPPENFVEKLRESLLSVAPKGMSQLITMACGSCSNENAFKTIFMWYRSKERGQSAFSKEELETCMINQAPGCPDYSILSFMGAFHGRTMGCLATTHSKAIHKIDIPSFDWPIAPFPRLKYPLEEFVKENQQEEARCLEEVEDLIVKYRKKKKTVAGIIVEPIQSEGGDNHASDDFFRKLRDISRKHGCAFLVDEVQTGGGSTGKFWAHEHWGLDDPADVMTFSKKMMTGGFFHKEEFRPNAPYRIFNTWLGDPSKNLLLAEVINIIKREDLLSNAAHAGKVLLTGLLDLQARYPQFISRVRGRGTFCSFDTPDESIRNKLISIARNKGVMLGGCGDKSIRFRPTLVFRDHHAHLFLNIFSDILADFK

## N[C@H]1C[C@@H](C(=O)O)CC1=C(F)F [Compound 5, reference compound]
[1]
  return of enzyme activity on dialysis: fully irreversible inhibitor

## N[C@H]1C=C(C(=O)O)CC1=C(F)F [Compound 9, reference compound]
[2]; from ref 29
  kinact/KI: 127 M⁻¹ s⁻¹
[2]; from ref 40
  Ki: 0.065 ± 0.01 mM
  kinact/KI: 14.5 M⁻¹ s⁻¹
[3]; IV, 3 mg/kg
  AUCinf: 653.80 ng·h/mL
  AUClast: 634.12 ng·h/mL
  C0/Cmax: 2376.08 ng/mL
  CL: 76.48 mL/min/kg
  T1/2: 30.6 min
  VSS: 1.75 L/kg
[3]; PO, 10 mg/kg
  % F: 42%
  AUCinf: 1006.60 ng·h/mL
  AUClast: 881.20 ng·h/mL
  C0/Cmax: 1575.74 ng/mL
  Tmax: 15 min

## N[C@H]1C[C@@H](C(=O)O)CCC1=C(F)F [Compound 12, (1S,3S)-3-amino-4-(difluoromethylene)cyclohexane-1-carboxylic acid]
[4]
  Ki: 1.27 ± 0.2 mM
  kinact: 0.00193 s⁻¹
  kinact/KI: 1.52 M⁻¹ s⁻¹
[5]
  Ki: 1.31 ± 0.4 mM
  kinact: 0.000417 s⁻¹
[5]; [10]
  kinact/KI: 0.317 M⁻¹ s⁻¹

## N[C@H]1C[C@H](C(=O)O)CCC1=C(F)F [Compound 13, (1R,3S)-3-Amino-4-(difluoromethylene)cyclohexane-1-carboxylic acid]
[4]
  Ki: 1.48 ± 0.21 mM
  kinact: 0.0015 s⁻¹
  kinact/KI: 1.07 M⁻¹ s⁻¹
[5]
  Ki: > 13.1 mM
  kinact: > 0.00317 s⁻¹
[5]; [10]
  kinact/KI: 0.25 M⁻¹ s⁻¹

## N[C@H]1C=C(C(=O)O)CCC1=C(F)F [Compound 14, (S)-3-Amino-4-(difluoromethylene)cyclohex-1-ene-1-carboxylic acid]
[6]; with α-KG
  F^− Release: 3.95 µM
  Fluoride ions released per active site: 2.95 equiv
[6]; without α-KG
  F^− Release: 3.57 µM
  Fluoride ions released per active site: 2.66 equiv
[7]
  inhibitory activities against Asp-AT: little or no inhibitory activities
[8]
  inhibitory activities against Ala-AT: little or no inhibitory activities
[4]
  Ki: 0.012 ± 0.002 mM
  kinact: 0.00323 s⁻¹
  kinact/KI: 270 M⁻¹ s⁻¹
[4]; versus 10 (b129 prints 7), by kinact/KI
  times more efficient/potent as an inactivator of hOAT than the comparator: 18.6
[5]
  Ki: > 1.24 mM
  kinact: > 0.006 s⁻¹
[5]; read-out: kinact/KI (converted)
  kinact/KI: 4.83 M⁻¹ s⁻¹
[5]; values marked b from the slope of kobs vs [I]
  kinact/KI: 0.29 ± 0.01^b mM^−1min^−1
[9]
  partition ratio: 0.6
[3]; in vivo, iv, 10 mg/kg
  AUC(0-inf): 2490 ng·h/mL
  AUC(0-t): 2470 ng·h/mL
  clearance: 66.9 mL/min/kg
  half-life: 9.6 min
  Cmax: 14800 ng/mL
[3]; in vivo, iv, 10 mg/kg, read-out: VSS
  Vd: 0.64 L/kg
[3]; in vivo, po, 30 mg/kg
  AUC(0-inf): 4330 ng·h/mL
  AUC(0-t): 4260 ng·h/mL
  bioavailability: 58%
  Cmax: 3430 ng/mL
[3]; in vivo, po, 30 mg/kg, read-out: Tmax
  Tmax: 15 min
[3]; in vivo, IV, 10 mg/kg
  Kp at 0.25 h: 0.05
[3]; in vivo, PO, 30 mg/kg
  Kp at 0.25 h: 0.01
[3]; preliminary assessment
  DMPK properties: favorable DMPK properties
[1]
  return of enzyme activity on dialysis: no enzyme activity recovered

## N[C@H]1CC(C(=O)O)=CCC1=C(F)F [Compound 15, (S)-5-Amino-4-(difluoromethylene)cyclohex-1-ene-1-carboxylic acid]
[4]
  Ki: 0.098 ± 0.014 mM
  kinact: 0.0009 s⁻¹
  kinact/KI: 9.17 M⁻¹ s⁻¹
[5]
  Ki: > 2.49 mM
  kinact: > 0.00367 s⁻¹
[5]; [10]
  kinact/KI: 1.45 M⁻¹ s⁻¹
